Earlier results as cited in patent publication US9557341B2, “Risk assessment for cutaneous adverse drug reactions from antiretroviral agent” (priority 2008, dated 2017).
Read-outs that look alike come from different tables or passages of the source.

Conditions: cited from earlier work; for hypersensitivity reaction incidence: mix French population

Q: Which “rate of drug rash” value (human, in vivo) does the source give for `O=C1Nc2ccc(Cl)cc2[C@@](C#CC2CC2)(C(F)(F)F)O1` [EFV, efavirenz] here?
A: 11%

Q: And the rate of hepatitis (human, in vivo)?
A: 9%

Q: For `Nc1nc(NC2CC2)c2ncn([C@H]3C=C[C@@H](CO)C3)c2n1` [abacavir], which “odds ratios, hypersensitivity and HLA-B*5701” value (Caucasians) is on record?
A: 117

Q: And the “rate of unwarranted interruptions of therapy” value (after HLA-B*5701 screening)?
A: 0.73%

Q: And the “rate of unwarranted interruptions of therapy” value (before HLA-B*5701 screening)?
A: 10.2%

Q: And the “negative predictive value of HLA-B*5701 for hypersensitivity” value (every ethnic studies)?
A: more than 90%

Q: What about the “hypersensitivity syndrome, cases” value (human, in vivo) of the same compound?
A: about 5%

Q: What about the hypersensitivity reaction incidence (after HLA-B*5701 screening) of the same compound?
A: 0%

Q: What about the hypersensitivity reaction incidence (before HLA-B*5701 screening) of the same compound?
A: 12%
